Measurements as given in ChEMBL document CHEMBL5506032, “Discovery of 2,6-Naphthyridine Analogues as Selective FGFR4 Inhibitors for Hepatocellular Carcinoma” (J Med Chem, 2024).
Values belong to the compound of their own block, whether it stands above or below them. Active and inactive are the calls of the source. No cut-off for these calls is given here.

Key:
Huh-7 [1] = assay: Antiproliferative activity against FGFR4 overexpressing human Huh-7 cells assessed as inhibition of cell growth by SRB assay
[2] = AUC (0 to 24 hrs) in ICR mouse at 50 mg/kg, po measured after 24 hrs by LC-MS/MS analysis; format: ADME, organism-based; conditions: in vivo
Hep 3B-Luc [3] = assay: Antitumor activity against human Hep 3B-Luc cells xenografted in female BALB/c nude mouse assessed as reduction in liver tumor volume at 100 mg/kg, po administered once daily for 7 weeks and measured within 35 days by bioluminescence imaging; format: functional, organism-based; conditions: time <= 35.0 day
Hep 3B2 [4] = assay: Growth inhibition of FGF19 amplified and FGFR4 overexpressing human Hep3B cells by SRB assay; format: functional
PLC-PRF-5 = assay: Growth inhibition of human PLCPRF5 cells by SRB assay; format: functional
[5] = Oral bioavailability in ICR mouse at 100 mg/kg measured after 24 hrs by LC-MS/MS analysis; format: ADME, organism-based; conditions: in vivo
SNU-387 = assay: Growth inhibition of human SNU-387 cells by SRB assay; format: functional
Hep 3B2 [6] = assay: Antitumor activity against human Hep3B cells xenografted in female BALB/c nude ectopic mouse assessed as reduction in tumor volume at 100 mg/kg, po administered twice daily for 15 days; format: functional, organism-based; conditions: time 15.0 day
HepG2 = assay: Growth inhibition of human HepG2 cells by SRB assay; format: functional
[7] = Toxicity in female BALB/c nude mouse xenografted with human Huh-7 cells assessed as effect on body weight at 100 mg/kg, po administered twice daily for 15 days; format: organism-based; conditions: in vivo, 360 h, time 15 day
[8] = target: Fibroblast growth factor receptor 3 (Homo sapiens, UniProt P22607); assay: Inhibition of FGFR3 (unknown origin) by Z'-LYTE kinase assay
Fibroblast growth factor receptor 3, sequence (P22607 whole entry): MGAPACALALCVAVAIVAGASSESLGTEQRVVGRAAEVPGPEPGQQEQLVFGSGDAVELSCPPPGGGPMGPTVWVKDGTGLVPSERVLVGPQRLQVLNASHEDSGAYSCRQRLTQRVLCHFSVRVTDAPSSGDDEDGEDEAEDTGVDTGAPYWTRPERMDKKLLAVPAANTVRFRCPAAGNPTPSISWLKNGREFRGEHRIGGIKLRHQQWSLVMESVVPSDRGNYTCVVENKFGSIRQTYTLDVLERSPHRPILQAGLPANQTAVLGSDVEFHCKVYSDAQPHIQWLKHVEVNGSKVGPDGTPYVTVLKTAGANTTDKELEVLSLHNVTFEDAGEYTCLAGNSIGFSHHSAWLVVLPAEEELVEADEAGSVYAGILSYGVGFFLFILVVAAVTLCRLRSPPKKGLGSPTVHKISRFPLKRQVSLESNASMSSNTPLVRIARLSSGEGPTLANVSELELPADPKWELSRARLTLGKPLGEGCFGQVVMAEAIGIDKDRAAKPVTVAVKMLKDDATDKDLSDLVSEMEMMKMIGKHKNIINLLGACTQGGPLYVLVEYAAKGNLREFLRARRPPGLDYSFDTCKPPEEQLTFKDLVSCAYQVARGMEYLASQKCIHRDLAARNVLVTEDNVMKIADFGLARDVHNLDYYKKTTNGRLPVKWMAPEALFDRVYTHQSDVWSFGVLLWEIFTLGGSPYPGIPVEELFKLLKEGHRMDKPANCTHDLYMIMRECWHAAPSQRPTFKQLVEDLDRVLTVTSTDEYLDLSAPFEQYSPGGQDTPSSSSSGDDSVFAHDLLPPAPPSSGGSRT

[9] = Half-life in ICR mouse at 5 mg/kg, iv by LC-MS/MS analysis; format: ADME, organism-based; conditions: in vivo
[10] = AUC (0 to 24 hrs) in ICR mouse at 5 mg/kg, iv by LC-MS/MS analysis; format: ADME, organism-based; conditions: in vivo
Huh-7 [11] = assay: Growth inhibition of FGF19 amplified and FGFR4 overexpressing human Huh-7 cells by SRB assay; format: functional
[12] = target: T1, Fibroblast growth factor receptor 1 (Homo sapiens, UniProt P11362); assay: Inhibition of FGFR1 (unknown origin) at 1 uM relative to control
Target sequence in this assay (P11362 22-822 limits assumed): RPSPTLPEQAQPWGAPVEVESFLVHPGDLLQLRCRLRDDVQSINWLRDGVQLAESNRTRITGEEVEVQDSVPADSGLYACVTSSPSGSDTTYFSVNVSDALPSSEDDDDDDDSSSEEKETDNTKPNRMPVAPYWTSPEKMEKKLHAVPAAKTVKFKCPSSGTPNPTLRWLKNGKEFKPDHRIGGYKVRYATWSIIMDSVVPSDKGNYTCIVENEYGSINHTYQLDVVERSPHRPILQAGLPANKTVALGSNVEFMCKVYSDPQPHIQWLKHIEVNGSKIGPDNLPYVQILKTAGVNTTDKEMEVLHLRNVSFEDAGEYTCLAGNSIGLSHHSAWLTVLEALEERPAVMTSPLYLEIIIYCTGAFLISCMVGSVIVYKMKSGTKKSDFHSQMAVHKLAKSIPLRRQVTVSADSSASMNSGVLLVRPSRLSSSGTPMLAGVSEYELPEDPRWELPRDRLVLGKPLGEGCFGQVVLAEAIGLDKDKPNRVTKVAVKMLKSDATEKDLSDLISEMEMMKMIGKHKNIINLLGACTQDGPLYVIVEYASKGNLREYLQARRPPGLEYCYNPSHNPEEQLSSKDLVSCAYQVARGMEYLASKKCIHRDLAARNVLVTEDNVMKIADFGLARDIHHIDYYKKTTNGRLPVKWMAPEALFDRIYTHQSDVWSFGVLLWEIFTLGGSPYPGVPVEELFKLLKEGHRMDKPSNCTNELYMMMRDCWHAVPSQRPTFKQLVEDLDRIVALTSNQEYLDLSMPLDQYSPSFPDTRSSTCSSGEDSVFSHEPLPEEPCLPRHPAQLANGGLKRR

[13] = AUC (0 to 24 hrs) in ICR mouse at 200 mg/kg, po measured after 48 hrs by LC-MS/MS analysis; format: ADME, organism-based; conditions: in vivo
[14] = Tmax in ICR mouse at 200 mg/kg, po measured after 48 hrs by LC-MS/MS analysis; format: ADME, organism-based; conditions: in vivo
[15] = Tmax in ICR mouse at 50 mg/kg, po measured after 24 hrs by LC-MS/MS analysis; format: ADME, organism-based; conditions: in vivo
[16] = Growth inhibition of human HS27 cells by SRB assay; format: toxicity, cell-based
RT-112 = assay: Growth inhibition of FGFR3 overexpressing human RT-112 cells by SRB assay; format: functional
Hep 3B2 [17] = assay: Antiproliferative activity against FGF19 amplified human Hep3B cells assessed as inhibition of cell growth by SRB assay
[18] = Toxicity in female BALB/c nude mouse xenografted with human Huh-7 cells assessed as clinical signs at 100 mg/kg, po administered twice daily for 15 days; format: organism-based; conditions: in vivo, 360 h, time 15 day
[19] = target: T2, Fibroblast growth factor receptor 2 (Homo sapiens, UniProt P21802); assay: Inhibition of FGFR2 (unknown origin) at 1 uM relative to control
Target sequence in this assay (P21802 22-821 limits assumed): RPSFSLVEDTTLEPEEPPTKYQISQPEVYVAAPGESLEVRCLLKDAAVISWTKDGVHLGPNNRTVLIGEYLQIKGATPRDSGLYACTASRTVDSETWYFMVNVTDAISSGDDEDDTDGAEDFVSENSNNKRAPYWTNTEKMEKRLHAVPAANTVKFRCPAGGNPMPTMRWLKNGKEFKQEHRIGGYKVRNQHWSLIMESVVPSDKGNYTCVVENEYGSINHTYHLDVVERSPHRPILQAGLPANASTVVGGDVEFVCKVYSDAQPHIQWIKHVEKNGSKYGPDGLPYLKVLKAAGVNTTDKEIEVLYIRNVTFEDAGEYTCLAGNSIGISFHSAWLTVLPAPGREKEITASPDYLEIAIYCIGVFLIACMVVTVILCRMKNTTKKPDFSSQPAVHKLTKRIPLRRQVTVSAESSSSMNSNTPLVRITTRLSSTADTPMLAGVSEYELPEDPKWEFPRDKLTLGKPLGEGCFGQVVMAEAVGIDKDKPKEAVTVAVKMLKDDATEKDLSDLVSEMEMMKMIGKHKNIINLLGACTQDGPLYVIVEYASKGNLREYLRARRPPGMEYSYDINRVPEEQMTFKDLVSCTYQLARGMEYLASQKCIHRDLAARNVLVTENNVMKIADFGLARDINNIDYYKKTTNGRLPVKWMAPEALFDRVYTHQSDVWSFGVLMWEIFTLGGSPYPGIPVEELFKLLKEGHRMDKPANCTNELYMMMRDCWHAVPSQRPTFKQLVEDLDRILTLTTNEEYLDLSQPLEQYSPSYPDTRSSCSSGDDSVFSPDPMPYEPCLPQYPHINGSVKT

[20] = Antiproliferative activity against FGF19 amplified human JHH7 cells assessed as inhibition of cell growth by SRB assay
[21] = Half-life in ICR mouse at 200 mg/kg, po measured after 48 hrs by LC-MS/MS analysis; format: ADME, organism-based; conditions: in vivo
[22] = target: T1, Fibroblast growth factor receptor 1; assay: Inhibition of FGFR1 (unknown origin) by Z'-LYTE kinase assay
Target sequence in this assay (P11362 whole entry): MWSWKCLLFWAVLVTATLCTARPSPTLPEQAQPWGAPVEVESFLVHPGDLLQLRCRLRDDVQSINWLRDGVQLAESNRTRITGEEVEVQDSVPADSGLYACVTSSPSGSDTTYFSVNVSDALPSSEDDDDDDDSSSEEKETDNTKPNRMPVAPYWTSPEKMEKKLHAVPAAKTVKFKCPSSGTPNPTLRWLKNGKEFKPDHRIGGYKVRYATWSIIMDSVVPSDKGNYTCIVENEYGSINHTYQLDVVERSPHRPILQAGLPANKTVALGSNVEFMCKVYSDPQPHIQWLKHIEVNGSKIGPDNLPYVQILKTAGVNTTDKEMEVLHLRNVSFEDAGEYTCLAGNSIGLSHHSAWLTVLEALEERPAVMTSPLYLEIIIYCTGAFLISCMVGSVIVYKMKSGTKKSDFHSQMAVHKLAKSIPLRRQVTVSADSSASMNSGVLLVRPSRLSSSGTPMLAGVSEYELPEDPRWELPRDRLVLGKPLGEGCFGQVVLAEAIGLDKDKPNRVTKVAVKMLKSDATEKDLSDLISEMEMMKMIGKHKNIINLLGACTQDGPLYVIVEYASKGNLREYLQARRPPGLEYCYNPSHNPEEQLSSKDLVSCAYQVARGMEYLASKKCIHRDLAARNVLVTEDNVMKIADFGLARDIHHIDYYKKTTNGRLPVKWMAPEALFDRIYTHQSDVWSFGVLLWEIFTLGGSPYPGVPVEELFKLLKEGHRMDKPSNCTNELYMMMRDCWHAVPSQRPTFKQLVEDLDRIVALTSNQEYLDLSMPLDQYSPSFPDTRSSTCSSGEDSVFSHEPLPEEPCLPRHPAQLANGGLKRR

[23] = Half-life in ICR mouse at 100 mg/kg, po measured after 24 hrs by LC-MS/MS analysis; format: ADME, organism-based; conditions: in vivo
[24] = Cmax in ICR mouse at 200 mg/kg, po measured after 48 hrs by LC-MS/MS analysis; format: ADME, organism-based; conditions: in vivo
Huh-7 [25] = assay: Antitumor activity against human Huh-7 cells xenografted in female BALB/c nude mouse assessed as reduction in tumor volume at 100 mg/kg, po administered twice daily for 15 days; format: functional, organism-based; conditions: time 15.0 day
Hep 3B-Luc [26] = assay: Antitumor activity against human Hep 3B-Luc cells xenografted in female BALB/c nude mouse assessed as reduction in liver tumor volume at 100 mg/kg, po administered once daily for 7 weeks and measured after 119 days by bioluminescence imaging; format: functional, organism-based; conditions: time 119.0 day
[27] = Oral bioavailability in ICR mouse at 200 mg/kg measured after 48 hrs by LC-MS/MS analysis; format: ADME, organism-based; conditions: in vivo
[28] = Oral bioavailability in ICR mouse at 50 mg/kg measured after 24 hrs by LC-MS/MS analysis; format: ADME, organism-based; conditions: in vivo
[29] = Cmax in ICR mouse at 5 mg/kg, iv by LC-MS/MS analysis; format: ADME, organism-based; conditions: in vivo
[30] = Antitumor activity against human Hep 3B-Luc cells xenografted in female BALB/c nude mouse assessed as survival at 100 mg/kg, po administered once daily for 7 weeks and measured after 119 days relative to control; format: functional; conditions: 2856 h, time 119 day
[31] = Tmax in ICR mouse at 100 mg/kg, po measured after 24 hrs by LC-MS/MS analysis; format: ADME, organism-based; conditions: in vivo
[32] = Cmax in ICR mouse at 100 mg/kg, po measured after 24 hrs by LC-MS/MS analysis; format: ADME, organism-based; conditions: in vivo
[33] = Half-life in ICR mouse at 50 mg/kg, po measured after 24 hrs by LC-MS/MS analysis; format: ADME, organism-based; conditions: in vivo
[34] = Growth inhibition of FGF19 amplified and FGFR4 overexpressing human JHH7 cells by SRB assay; format: functional
[35] = Cmax in ICR mouse at 50 mg/kg, po measured after 24 hrs by LC-MS/MS analysis; format: ADME, organism-based; conditions: in vivo
[36] = AUC (0 to 24 hrs) in ICR mouse at 100 mg/kg, po measured after 24 hrs by LC-MS/MS analysis; format: ADME, organism-based; conditions: in vivo
[37] = target: T2, Fibroblast growth factor receptor 2; assay: Inhibition of FGFR2 (unknown origin) by Z'-LYTE kinase assay
Target sequence in this assay (P21802 whole entry): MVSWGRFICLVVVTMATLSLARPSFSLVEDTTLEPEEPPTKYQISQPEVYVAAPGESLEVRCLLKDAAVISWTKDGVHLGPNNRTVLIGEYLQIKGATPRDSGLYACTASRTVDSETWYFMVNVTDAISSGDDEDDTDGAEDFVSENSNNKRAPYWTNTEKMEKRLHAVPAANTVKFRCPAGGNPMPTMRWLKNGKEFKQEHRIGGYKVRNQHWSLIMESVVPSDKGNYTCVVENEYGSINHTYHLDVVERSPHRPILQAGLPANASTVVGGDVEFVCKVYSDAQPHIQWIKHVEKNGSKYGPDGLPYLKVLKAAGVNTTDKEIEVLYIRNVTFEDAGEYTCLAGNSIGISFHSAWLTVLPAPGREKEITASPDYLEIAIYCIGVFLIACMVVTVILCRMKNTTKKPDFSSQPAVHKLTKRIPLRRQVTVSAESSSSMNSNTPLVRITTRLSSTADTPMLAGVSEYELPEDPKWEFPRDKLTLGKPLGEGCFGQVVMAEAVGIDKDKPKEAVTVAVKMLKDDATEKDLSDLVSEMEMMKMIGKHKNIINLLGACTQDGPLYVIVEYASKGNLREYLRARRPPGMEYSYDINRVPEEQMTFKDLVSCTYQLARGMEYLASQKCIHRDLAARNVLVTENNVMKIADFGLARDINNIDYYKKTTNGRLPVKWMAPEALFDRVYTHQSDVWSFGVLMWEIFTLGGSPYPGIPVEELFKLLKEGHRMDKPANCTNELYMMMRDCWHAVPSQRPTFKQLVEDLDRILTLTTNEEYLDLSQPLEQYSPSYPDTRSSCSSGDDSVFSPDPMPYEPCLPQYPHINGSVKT

[38] = target: Fibroblast growth factor receptor 4 (Homo sapiens, UniProt P22455); assay: Inhibition of FGFR4 (unknown origin) by Z'-LYTE kinase assay
Fibroblast growth factor receptor 4, sequence (P22455 whole entry): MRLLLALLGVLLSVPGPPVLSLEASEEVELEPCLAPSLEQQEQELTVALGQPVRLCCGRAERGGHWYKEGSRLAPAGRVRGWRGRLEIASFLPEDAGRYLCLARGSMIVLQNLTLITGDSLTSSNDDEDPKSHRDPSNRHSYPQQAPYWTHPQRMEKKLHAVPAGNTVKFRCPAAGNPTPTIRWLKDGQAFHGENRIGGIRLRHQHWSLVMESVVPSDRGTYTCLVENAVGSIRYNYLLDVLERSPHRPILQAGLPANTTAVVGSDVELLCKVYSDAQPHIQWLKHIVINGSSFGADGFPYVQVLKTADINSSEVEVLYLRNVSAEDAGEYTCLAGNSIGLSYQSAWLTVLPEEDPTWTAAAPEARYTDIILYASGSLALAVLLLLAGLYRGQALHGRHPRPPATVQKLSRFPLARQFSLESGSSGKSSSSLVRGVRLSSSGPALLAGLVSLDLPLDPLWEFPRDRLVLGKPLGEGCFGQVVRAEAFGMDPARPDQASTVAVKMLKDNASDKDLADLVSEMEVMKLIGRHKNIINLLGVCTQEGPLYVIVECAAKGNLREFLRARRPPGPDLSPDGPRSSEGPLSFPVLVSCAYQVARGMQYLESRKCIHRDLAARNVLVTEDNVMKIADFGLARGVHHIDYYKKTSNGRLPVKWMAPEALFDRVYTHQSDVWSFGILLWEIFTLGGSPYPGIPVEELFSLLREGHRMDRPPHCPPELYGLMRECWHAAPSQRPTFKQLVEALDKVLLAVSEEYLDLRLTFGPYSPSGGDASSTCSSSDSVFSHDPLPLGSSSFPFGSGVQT

SMILES: C=CC(=O)Nc1cccc(C)c1Nc1cc2cnc(-c3c(Cl)c(OC)cc(OC)c3Cl)cc2cn1
IC50 (Huh-7 [1]): 212 nM

SMILES: C=CC(=O)Nc1ccc(N2CCN(CC)CC2)c(F)c1Nc1cc2cnc(-c3c(F)c(OC)cc(OC)c3F)cc2cn1
IC50 (Huh-7 [1]): 137 nM

SMILES: C=CC(=O)Nc1ccccc1Nc1cc2c(C3CC3)nc(-c3c(Cl)c(OC)cc(OC)c3Cl)cc2cn1
IC50 (Huh-7 [1]): 67 nM

SMILES: C=CC(=O)Nc1cccc(C)c1Nc1ncc2cc(-c3c(Cl)c(OC)cc(OC)c3Cl)ccc2n1
IC50 (Huh-7 [1]): 191 nM

SMILES: C=CC(=O)Nc1cccc(F)c1Nc1cc2cnc(-c3c(F)c(OC)cc(OC)c3F)cc2cn1
IC50 (Huh-7 [1]): 140 nM

SMILES: C=CC(=O)Nc1ccccc1Nc1cc2c(C)nc(-c3c(Cl)c(OC)cc(OC)c3Cl)cc2cn1
AUC(0-t) at 24 h [2]: 27300 ng·h/mL | Activity (Hep 3B-Luc [3]): Active | GI50 (Hep 3B2 [4]): 16 nM | GI50 (PLC-PRF-5): 598 nM | bioavailability [5]: 61.9% | GI50 (SNU-387): 251 nM | Activity (Hep 3B2 [6]): Active | GI50 (HepG2): 335 nM | Activity [7]: Non-Toxic | IC50 [8]: > 10000 nM | half-life [9]: 1.7 h | IC50 (Huh-7 [1]): 19 nM | AUC(0-t) [10]: 4810 ng·h/mL | GI50 (Huh-7 [11]): 16 nM | inhibition [12]: > 85% | AUC(0-t) at 48 h [13]: 102000 ng·h/mL | Tmax [14]: 1 h | Tmax [15]: 1 h | GI50 [16]: 913 nM | GI50 (RT-112): 151 nM | IC50 (Hep 3B2 [17]): 16 nM | Activity [18]: Non-Toxic | inhibition [19]: > 85% | IC50 [20]: 33 nM | half-life [21]: 8.6 h | IC50 [22]: 1260 nM | half-life [23]: 3.9 h | Cmax [24]: 40700 ng/mL | Activity (Huh-7 [25]): Active | Activity (Hep 3B-Luc [26]): Active | bioavailability [27]: 53.2% | bioavailability [28]: 56.8% | Cmax [29]: 8140 ng/mL | survival at 100 mg/kg [30]: > 90% | Tmax [31]: 0.5 h | Cmax [32]: 24600 ng/mL | half-life [33]: 4.4 h | GI50 [34]: 16 nM | Cmax [35]: 11200 ng/mL | AUC(0-t) at 24 h [36]: 59500 ng·h/mL | IC50 [37]: 3270 nM

SMILES: C=CC(=O)Nc1ccccc1Nc1cc2cnc(-c3c(Cl)c(OC)cc(OC)c3Cl)cc2cn1
IC50 [8]: 4630 nM | IC50 (Huh-7 [1]): 23 nM | IC50 [22]: 506 nM | IC50 [37]: 281 nM

SMILES: C=CC(=O)Nc1ccccc1Nc1cc2c(-c3ccc[nH]3)nc(-c3c(Cl)c(OC)cc(OC)c3Cl)cc2cn1
IC50 (Huh-7 [1]): 61 nM

SMILES: C=CC(=O)Nc1ccccc1Nc1cc2c(-c3cccnc3)nc(-c3c(Cl)c(OC)cc(OC)c3Cl)cc2cn1
IC50 (Huh-7 [1]): 68 nM

SMILES: C=CC(=O)Nc1ccccc1Nc1cc2c(-c3cnn(C)c3)nc(-c3c(Cl)c(OC)cc(OC)c3Cl)cc2cn1
IC50 (Huh-7 [1]): 50 nM

SMILES: C=CC(=O)Nc1ccccc1Nc1cc2cnc(-c3c(F)c(OC)cc(OC)c3F)cc2cn1
IC50 (Huh-7 [1]): 25 nM

SMILES: C=CC(=O)N[C@H]1CCOC[C@H]1Nc1ncc2cc(-c3c(Cl)c(OC)cc(OC)c3Cl)ccc2n1 [FISOGATINIB]
IC50 [38]: 53 nM | Activity [7]: Non-Toxic | IC50 [8]: > 10000 nM | IC50 (Huh-7 [1]): 81 nM | IC50 (Hep 3B2 [17]): 122 nM | Activity [18]: Non-Toxic | IC50 [20]: 161 nM | IC50 [22]: 1840 nM | Activity (Huh-7 [25]): Active | IC50 [37]: 2500 nM

Results, then the compound that gave them:

IC50 (Huh-7 [1]): 125 nM
SMILES: C=CC(=O)Nc1cc(C)ccc1Nc1cc2cnc(-c3c(Cl)c(OC)cc(OC)c3Cl)cc2cn1

IC50 (Huh-7 [1]): 113 nM
SMILES: C=CC(=O)Nc1cc2c(cc1Nc1cc3cnc(-c4c(Cl)c(OC)cc(OC)c4Cl)cc3cn1)CCC2

IC50 (Huh-7 [1]): 80 nM
SMILES: C=CC(=O)Nc1cc(N2CCOCC2)ccc1Nc1cc2cnc(-c3c(Cl)c(OC)cc(OC)c3Cl)cc2cn1

IC50 (Huh-7 [1]): 69 nM
SMILES: C=CC(=O)Nc1ccccc1Nc1cc2c(-c3ccccc3)nc(-c3c(Cl)c(OC)cc(OC)c3Cl)cc2cn1

IC50 (Huh-7 [1]): 110 nM
SMILES: C=CC(=O)Nc1ccccc1Nc1cc2c(-c3ccco3)nc(-c3c(Cl)c(OC)cc(OC)c3Cl)cc2cn1

IC50 (Huh-7 [1]): 37 nM
SMILES: C=CC(=O)Nc1ccc(C)cc1Nc1cc2cnc(-c3c(Cl)c(OC)cc(OC)c3Cl)cc2cn1

IC50 (Huh-7 [1]): 36 nM
SMILES: C=CC(=O)Nc1ccccc1Nc1cc2c(CC)nc(-c3c(Cl)c(OC)cc(OC)c3Cl)cc2cn1

IC50 (Huh-7 [1]): 220 nM
SMILES: C=CC(=O)Nc1cccc(F)c1Nc1cc2cnc(-c3c(Cl)c(OC)cc(OC)c3Cl)cc2cn1
